Results as given in patent US20180296630A1, “METHODS AND COMPOSITIONS FOR PREVENTING OR TREATING OPHTHALMIC CONDITIONS” (Stealth BioTherapeutics Corp, priority 2012, published 2018).

Tests used:
[1] = test system: Trx2 in HRECs; test: Trx2 expression in high glucose-treated HRECs (real-time PCR, Western blot); assay type: cell-based, human; conditions: 30 mM glucose co-treatment; 24 h and 48 h
Protocol: D-Arg-2′,6′-Dmt-Lys-Phe-NH2 increased the expression of Trx2 in the high glucose-treated HRECs. […] The mRNA expression level of Trx2 was measured by quantitative real-time PCR. Relative mRNA levels of Trx2 were normalized by 18S mRNA levels (* p<0.05 vs. the normal glucose medium group and the 30 mM high glucose treated group). Three independent samples were used for each time point.

[2] = test system: primary human retinal pigment epithelial (RPE) cells; test: MMP of RPE cells exposed to tBHP (JC-1, FACS); assay type: cell-based
Protocol: Next, the viability of primary RPE cells was tested in the presence of tBHP and various concentrations of D-Arg-2′,6′-Dmt-Lys-Phe-NH2. Cells were plated at 10,000 cells per well in a 96-well plate and cultured for 24 h, then starved for 24 h. After that, cells were exposed to increasing concentrations of tBHP (FIG. 23A), or preincubated for 4 h with different concentrations of D-Arg-2′,6′-Dmt-Lys-Phe-NH2, then stimulated with tBHP for 6 h (FIG. 23B). […] Intracellular ROS production in three groups of RPE cells was also examined using FACS analysis. […] Three different concentration of D-Arg-2′,6′-Dmt-Lys-Phe-NH2 groups were analyzed. The ratio of red to green in 500 μM tBHP for the 3 h group is 1.08, the ratio of red to green in 10 nM D-Arg-2′,6′-Dmt-Lys-Phe-NH2 for 4 h+500 tBHP for 3 h group is 1.25; the ratio of red to green in 100 nM D-Arg-2′,6′-Dmt-Lys-Phe-NH2 for 4 hr+500 μM tBHP for 3 h group is 1.4; and the ratio of red to green in 1 μM D-Arg-2′,6′-Dmt-Lys-Phe-NH2 for 4 h+500 μM tBHP for 3 h group is […]. […] FIG. 33A: Control group, R/G is 3.63±0.24; FIG. 33B: 500 μM tBHP for 3 h group, R/G is 1.08±0.11; FIG. 33C: 1 μM D-Arg-2′,6′-Dmt-Lys-Phe-NH2 for 4 h+500 μM tBHP for 3 h group, R/G is 2.38±0.18. FIG. 33D is a chart comparing the fluorescence ratio for the different groups. *P<0.01, C vs. B.

[3] = test system: HFD/STZ diabetic rats; test: Lens opacity (cataract) in HFD/STZ rat model; assay type: in vivo, Sprague-Dawley rat; conditions: for Percentage of opacity / Percentage of severe opacity / Turbidity degree + (mildly opaque), number in group / Turbidity degree ++ (opaque), number in group / Turbidity degree +++ (moderately opaque), number in group / Turbidity degree ++++ (severely opaque), number in group / Turbidity degree − (transparent), number in group: HFD/STZ rat model
Protocol: A rat model of diabetes was established by combination of 6-week HFD and low dose of STZ (30 mg/kg) injection or a single high dose of STZ (65 mg/kg) in SD rats. See generally, K. Srinivasan, B. Viswanad, Lydia Asrat, C. L. Kaul and P. Ramarao, Combination of high-fat diet-fed and low-dose streptozotocin-treated rat: A model for type 2 diabetes and pharmacological screening, Pharmacological Research, 52(4): 313-320, 2005. Rats of the same batch fed with normal chow (NRC) were used as a control.

[4] = test system: trabecular meshwork cells from POAG patients (GTM); test: LDH cytotoxicity assay, GTM cells; assay type: cell-based, human
Text: In this Example, the effects of the aromatic-cationic peptides of the invention were compared between trabecular meshwork cells from POAG patients (GTM) and trabecular meshwork cells from non-diseased individuals (HTM). Methods useful in the studies of the present invention have been described. See generally, He Y, Ge J, Tombran-Tink J., Mitochondrial defects and dysfunction in calcium regulation in glaucomatous trabecular meshwork cells. Invest Ophthalmol Vis Sci. 2008, 49(11):4912-22; He Y, Leung K W, Zhang Y H, Duan S, Zhong X F, Jiang R Z, Peng Z, Tombran-Tink J, Ge J. Mitochondrial complex I defect induces ROS release and degeneration in trabecular meshwork cells of POAG patients: protection by antioxidants. Invest Ophthalmol Vis Sci. 2008, 49(4):1447-58. […]
To assess whether D-Arg-2′,6′-Dmt-Lys-Phe-NH2 had cytotoxic effects of HTM or GTM cells, various concentrations of D-Arg-2′,6′-Dmt-Lys-Phe-NH2 were administered to cells and the cytotoxicity was measured using an LDH assay. […] The assay quantitatively measures the stable, cytosolic, lactate dehydrogenase (LDH) enzyme, which is released from damaged cells. The released LDH is measured with a coupled enzymatic reaction that results in the conversion of a tetrazolium salt (iodonitrotetrazolium (INT)) into a red color formazan by diaphorase. […] The LDH activity is determined as NADH oxidation or INT reduction over a defined time period.

How did the “expression of Trx2” value [1] turn out when D-Arg-2′,6′-Dmt-Lys-Phe-NH2 was run?
The value was “increased”.

And the “ratio of red to green (JC-1)” value ([2]; 10 nM for 4 h + 500 tBHP for 3 h (FIG. 32))?
The value was 1.25.

What about the “ratio of red to green (JC-1)” value ([2]; 100 nM for 4 hr + 500 μM tBHP for 3 h (FIG. 32)) of the same substance?
The value was 1.4.

What about the “ratio of red to green (JC-1)” value ([2]; 1 μM for 4 h + 500 μM tBHP for 3 h (FIG. 32)) of the same substance?
Its value is 2.28.

And the “R/G (JC-1)” value ([2]; 1 μM for 4 h + 500 μM tBHP for 3 h (FIG. 33C))?
The value was 2.38±0.18.

And the “cataract formation in the lenses of diabetic rats” value ([3]; HFD/STZ and STZ models (FIGS. 6 and 7, Tables 13 and 14))?
Its value is “prevention or reversal of cataract formation”.

What about the Percentage of opacity ([3]; 1 mg (Table 9: 1 mg/kg s.c.)) of the same substance?
Its Percentage of opacity is 67.7%.

What about the “Percentage of severe opacity” value ([3]; 1 mg (Table 9: 1 mg/kg s.c.)) of the same substance?
Its value is 0%.

And the “Turbidity degree + (mildly opaque), number in group” value (shortened to “Turbidity degree + (mildly opaque)”) ([3]; 1 mg (Table 9: 1 mg/kg s.c.))?
The value was 1.

And the “Turbidity degree ++ (opaque), number in group” value (from here on “Turbidity degree ++ (opaque)”) ([3]; 1 mg (Table 9: 1 mg/kg s.c.))?
The value was 1.

What about the “Turbidity degree +++ (moderately opaque), number in group” value ([3]; 1 mg (Table 9: 1 mg/kg s.c.)) of the same substance?
The value was 0.

What about the “Turbidity degree ++++ (severely opaque), number in group” value (shortened to “Turbidity degree ++++ (severely opaque)”) ([3]; 1 mg (Table 9: 1 mg/kg s.c.)) of the same substance?
Its value is 0.

And the “Turbidity degree − (transparent), number in group” value (shortened to “Turbidity degree − (transparent)”) ([3]; 1 mg (Table 9: 1 mg/kg s.c.))?
The value was 1.

And the Percentage of opacity ([3]; 3 mg (Table 9: 3 mg/kg s.c.))?
Its Percentage of opacity is 20.0%.

What about the “Percentage of severe opacity” value ([3]; 3 mg (Table 9: 3 mg/kg s.c.)) of the same substance?
Its value is 20.0%.

And the “Turbidity degree + (mildly opaque)” value ([3]; 3 mg (Table 9: 3 mg/kg s.c.))?
The value was 1.

And the “Turbidity degree ++ (opaque)” value ([3]; 3 mg (Table 9: 3 mg/kg s.c.))?
The value was 0.

What about the “Turbidity degree +++ (moderately opaque), number in group” value ([3]; 3 mg (Table 9: 3 mg/kg s.c.)) of the same substance?
The value was 0.

What about the “Turbidity degree ++++ (severely opaque)” value ([3]; 3 mg (Table 9: 3 mg/kg s.c.)) of the same substance?
Its value is 1.

And the “Turbidity degree − (transparent)” value ([3]; 3 mg (Table 9: 3 mg/kg s.c.))?
The value was 3.

What about the Percentage of opacity ([3]; 10 mg (Table 9: 10 mg/kg s.c.)) of the same substance?
Its Percentage of opacity is 14.3%.

And the “Percentage of severe opacity” value ([3]; 10 mg (Table 9: 10 mg/kg s.c.))?
The value was 0%.

And the “Turbidity degree + (mildly opaque)” value ([3]; 10 mg (Table 9: 10 mg/kg s.c.))?
Its value is 1.

And the “Turbidity degree ++ (opaque)” value ([3]; 10 mg (Table 9: 10 mg/kg s.c.))?
The value was 0.

What about the “Turbidity degree +++ (moderately opaque), number in group” value ([3]; 10 mg (Table 9: 10 mg/kg s.c.)) of the same substance?
The value was 0.

What about the “Turbidity degree ++++ (severely opaque)” value ([3]; 10 mg (Table 9: 10 mg/kg s.c.)) of the same substance?
The value was 0.

What about the “Turbidity degree − (transparent)” value ([3]; 10 mg (Table 9: 10 mg/kg s.c.)) of the same substance?
The value was 6.

And the cytotoxicity ([4]; 10^−4M)?
The cytotoxicity was “no cytotoxicity”.

And the “viability (LDH assay)” value ([4]; various concentrations)?
Its value is “does not affect the viability”.
